Test system: 2G12
Experiment: Binding curve and KD determination of 2G12-glycopeptide interaction (radiolabeled glycopeptide, protein G magnetic bead capture, scintillation counting)
Procedure: The resulting mRNAs were purified by denaturing PAGE or MEGAclear kit (Ambion), and 1 μM RNA was used in PURE system translation (reaction volume of translation varied). Typically, 25 μL of translated reaction was diluted with 100 μL of binding buffer (50 mM Tris-HCl, pH 7.8, 300 mM NaCl, 5 mM β-mercaptoethanol) and 25 μL of Ni-NTA agarose suspension (Qiagen), and tumbled at room temperature for 1 h. The resins were transferred to 0.22 μm spin-filter rinsing with 100 μL of bind buffer, and washed with 3×200 μL of bind buffer and 2×200 μL of wash buffer (50 mM Tris-HCl, pH 7.8, 5 mM β-mercaptoethanol). The bound peptides were eluted with 2×25 μL of 0.1% TFA. The eluted peptides were analyzed by MALDI-TOF MS, using α-Cyano-4-hydroxycinnamic acid matrix (Sigma), with or without desalting with ZipTip C18 resin (Millipore). For calibration of MALDI-TOF-MS, at least two of the following standards, bovine insulin, E. coli thioredoxin and/or horse apomyoglobin were used. To quantitate peptide yields, the radioactivities were measured by liquid scintillation counting. For the click reaction, the translated and purified peptides were mixed with 0.1% (v/v) Triton X-100, and then dialyzed against H2O containing 0.1% (v/v) Triton X-100 using Slide-A-Lyzer MINI Dialysis Devices, 3.5K MWCO (Thermo Scientific) overnight to desalt. After dialysis, the peptides were divided into two portions: one was glycosylated via the click reaction, while the other was saved as a non-glycosylated peptide control. […] The glycosylated peptide (<4 pmol) was incubated with 100 nM 2G12 in selection buffer (40 μL) at room temp. The solution was then tumbled 30 min with 0.12 mg of equilibrated Dynabeads Protein G to capture 2G12-glycopeptide complex. Beads were then washed with 3×40 μL of selection buffer and resuspended in 10 μL of selection buffer. The resuspended beads were heated at 70° C. for 30 min to denature 2G12 and elute glycopeptides, chilled on ice for 5 min, and tumbled at room temperature for 10 min. The magnetically isolated supernatant was recovered and the beads were rinsed with 10 μL of selection buffer.
Then, the solution was added to 0.12 mg of pre-equilibrated Dynabeads Protein G and tumbled at room temperature for 30 min. The supernatant was removed and the beads were washed with 3×40 μL of selection buffer. The radioactivities of the supernatant and wash solutions were measured by liquid scintillation counting as unbound fractions. […] The beads were resuspended in 40 μL of selection buffer, heated at 70° C. for 30 min to elute the bound glycopeptides, chilled on ice for 5 min, and tumbled at room temperature for 10 min. The supernatant was removed, and the beads were washed with 40 μL of selection buffer and resuspended in 40 μL of selection buffer. The radioactivities of these solutions and suspensions were measured by liquid scintillation counting separately and the values were combined as apparent bound fractions. […] All experiments were done at least in triplicate. KDs were calculated as described in the footnote of Table 4 (below).

Row | Structure (SMILES) | Fmax [%] (Table 4, maximal fraction bound from curve fit, error = standard error of fit) | Kd (Table 4, ribosomally translated radiolabeled glycopeptide with His6/FLAG tag, room temperature, fit Fbound=(Fmax[2G12])/(KD+[2G12]), error = standard error of fit) | Fmax [%] (Table 6 mutational analysis, radioactive bead binding assay) | Kd (Table 6 mutational analysis, radioactive bead binding assay, ribosomally translated) | binding to 2G12 after truncation (in words) (truncated clones, Table 6)
1 | CC[C@H](C)[C@H](NC(=O)[C@@H](NC(=O)[C@@H](NC(=O)[C@H](Cc1c[nH]cn1)NC(=O)[C@H](CC(N)=O)NC(=O)[C@H](CC(=O)O)NC(=O)[C@H](CCc1cn(C2CCC(OC3O[C@H](CO[C@H]4O[C@H](CO[C@H]5O[C@H](CO)[C@@H](O)[C@H](O)[C@@H]5O[C@H]5O[C@H](CO)[C@@H](O)[C@H](O)[C@@H]5O)[C@@H](O)[C@H](O[C@H]5O[C@H](CO)[C@@H](O)[C@H](O)[C@@H]5O[C@H]5O[C@H](CO)[C@@H](O)[C@H](O)[C@@H]5O)[C@@H]4O)[C@@H](O)[C@H](O[C@H]4O[C@H](CO)[C@@H](O)[C@H](O)[C@@H]4O[C@H]4O[C@H](CO)[C@@H](O)[C@H](O)[C@@H]4O[C@H]4O[C@H](CO)[C@@H](O)[C@H](O)[C@@H]4O)[C@@H]3O)CC2)nn1)NC(=O)[C@@H](NC(=O)[C@H](CCCCN)NC(=O)[C@H](CCC(=O)O)NC(=O)[C@H](CCCNC(=N)N)NC(=O)[C@H](CCCCN)NC(=O)[C@H](CS)NC(=O)[C@H](CC(N)=O)NC(=O)[C@@H](NC(=O)[C@H](CCCCN)NC(=O)[C@@H](NC(=O)[C@H](C)NC(=O)[C@H](CCc1cn(C2CCC(OC3O[C@H](CO[C@H]4O[C@H](CO[C@H]5O[C@H](CO)[C@@H](O)[C@H](O)[C@@H]5O[C@H]5O[C@H](CO)[C@@H](O)[C@H](O)[C@@H]5O)[C@@H](O)[C@H](O[C@H]5O[C@H](CO)[C@@H](O)[C@H](O)[C@@H]5O[C@H]5O[C@H](CO)[C@@H](O)[C@H](O)[C@@H]5O)[C@@H]4O)[C@@H](O)[C@H](O[C@H]4O[C@H](CO)[C@@H](O)[C@H](O)[C@@H]4O[C@H]4O[C@H](CO)[C@@H](O)[C@H](O)[C@@H]4O[C@H]4O[C@H](CO)[C@@H](O)[C@H](O)[C@@H]4O)[C@@H]3O)CC2)nn1)NC=O)[C@@H](C)O)[C@@H](C)O)[C@@H](C)O)C(C)C)[C@@H](C)O)C(=O)N[C@@H](CCc1cn(C2CCC(OC3O[C@H](CO[C@H]4O[C@H](CO[C@H]5O[C@H](CO)[C@@H](O)[C@H](O)[C@@H]5O[C@H]5O[C@H](CO)[C@@H](O)[C@H](O)[C@@H]5O)[C@@H](O)[C@H](O[C@H]5O[C@H](CO)[C@@H](O)[C@H](O)[C@@H]5O[C@H]5O[C@H](CO)[C@@H](O)[C@H](O)[C@@H]5O)[C@@H]4O)[C@@H](O)[C@H](O[C@H]4O[C@H](CO)[C@@H](O)[C@H](O)[C@@H]4O[C@H]4O[C@H](CO)[C@@H](O)[C@H](O)[C@@H]4O[C@H]4O[C@H](CO)[C@@H](O)[C@H](O)[C@@H]4O)[C@@H]3O)CC2)nn1)C(=O)N[C@@H](CCCNC(=N)N)C(=O)N[C@@H](CO)C(=O)N[C@H](C(=O)N1CCC[C@H]1C(=O)N[C@@H](Cc1c[nH]c2ccccc12)C(=O)N[C@@H](Cc1ccc(O)cc1)C(=O)N[C@H](C(=O)N[C@@H](Cc1ccc(O)cc1)C(=O)N[C@@H](CCCNC(=N)N)C(=O)N[C@@H](Cc1c[nH]c2ccccc12)C(=O)N[C@@H](CC(C)C)C(=O)N1CCC[C@H]1C(=O)N[C@@H](CC(N)=O)C(=O)NCC(=O)N[C@@H](CO)C(=O)NCC(=O)N[C@@H](CO)C(=O)N[C@@H](CC(C)C)C(=O)NCC(=O)N[C@@H](Cc1c[nH]cn1)C(=O)N[C@@H](Cc1c[nH]cn1)C(=O)N[C@@H](Cc1c[nH]cn1)C(=O)N[C@@H](Cc1c[nH]cn1)C(=O)N[C@@H](Cc1c[nH]cn1)C(=O)N[C@@H](Cc1c[nH]cn1)C(=O)N[C@@H](CCCNC(=N)N)C(=O)N[C@@H](CC(=O)O)C(=O)N[C@@H](Cc1ccc(O)cc1)C(=O)N[C@@H](CCCCN)C(=O)N[C@@H](CC(=O)O)C(=O)N[C@@H](CC(=O)O)C(=O)N[C@@H](CC(=O)O)C(=O)N[C@@H](CC(=O)O)C(=O)N[C@@H](CCCCN)C(=O)O)[C@@H](C)O)[C@@H](C)CC (some centres unmarked) [Clone 10V1, XATKTNCKREKTXDNHVTIXRSIPWYTYRWLPN] | 97 ± 2.1% | 1.9 ± 0.17 nM | – | – | –
2 | CC[C@H](C)[C@H](NC(=O)[C@H](CCCNC(=N)N)NC(=O)[C@H](Cc1c[nH]cn1)NC(=O)[C@H](Cc1ccccc1)NC(=O)[C@H](CC(C)C)NC(=O)[C@H](C)NC(=O)[C@H](CC(C)C)NC(=O)[C@H](C)NC(=O)[C@H](Cc1ccc(O)cc1)NC(=O)[C@H](CCc1cn(C2CCC(OC3O[C@H](CO[C@H]4O[C@H](CO[C@H]5O[C@H](CO)[C@@H](O)[C@H](O)[C@@H]5O[C@H]5O[C@H](CO)[C@@H](O)[C@H](O)[C@@H]5O)[C@@H](O)[C@H](O[C@H]5O[C@H](CO)[C@@H](O)[C@H](O)[C@@H]5O[C@H]5O[C@H](CO)[C@@H](O)[C@H](O)[C@@H]5O)[C@@H]4O)[C@@H](O)[C@H](O[C@H]4O[C@H](CO)[C@@H](O)[C@H](O)[C@@H]4O[C@H]4O[C@H](CO)[C@@H](O)[C@H](O)[C@@H]4O[C@H]4O[C@H](CO)[C@@H](O)[C@H](O)[C@@H]4O)[C@@H]3O)CC2)nn1)NC(=O)[C@H](CC(=O)O)NC(=O)[C@@H](NC(=O)[C@@H](NC(=O)[C@H](CCC(N)=O)NC(=O)[C@H](CCc1cn(C2CCC(OC3O[C@H](CO[C@H]4O[C@H](CO[C@H]5O[C@H](CO)[C@@H](O)[C@H](O)[C@@H]5O[C@H]5O[C@H](CO)[C@@H](O)[C@H](O)[C@@H]5O)[C@@H](O)[C@H](O[C@H]5O[C@H](CO)[C@@H](O)[C@H](O)[C@@H]5O[C@H]5O[C@H](CO)[C@@H](O)[C@H](O)[C@@H]5O)[C@@H]4O)[C@@H](O)[C@H](O[C@H]4O[C@H](CO)[C@@H](O)[C@H](O)[C@@H]4O[C@H]4O[C@H](CO)[C@@H](O)[C@H](O)[C@@H]4O[C@H]4O[C@H](CO)[C@@H](O)[C@H](O)[C@@H]4O)[C@@H]3O)CC2)nn1)NC(=O)[C@H](CCCCN)NC(=O)[C@H](CC(C)C)NC(=O)[C@H](C)NC(=O)[C@H](C)NC(=O)[C@H](CCc1cn(C2CCC(OC3O[C@H](CO[C@H]4O[C@H](CO[C@H]5O[C@H](CO)[C@@H](O)[C@H](O)[C@@H]5O[C@H]5O[C@H](CO)[C@@H](O)[C@H](O)[C@@H]5O)[C@@H](O)[C@H](O[C@H]5O[C@H](CO)[C@@H](O)[C@H](O)[C@@H]5O[C@H]5O[C@H](CO)[C@@H](O)[C@H](O)[C@@H]5O)[C@@H]4O)[C@@H](O)[C@H](O[C@H]4O[C@H](CO)[C@@H](O)[C@H](O)[C@@H]4O[C@H]4O[C@H](CO)[C@@H](O)[C@H](O)[C@@H]4O[C@H]4O[C@H](CO)[C@@H](O)[C@H](O)[C@@H]4O)[C@@H]3O)CC2)nn1)NC(=O)[C@H](CCc1cn(C2CCC(OC3O[C@H](CO[C@H]4O[C@H](CO[C@H]5O[C@H](CO)[C@@H](O)[C@H](O)[C@@H]5O[C@H]5O[C@H](CO)[C@@H](O)[C@H](O)[C@@H]5O)[C@@H](O)[C@H](O[C@H]5O[C@H](CO)[C@@H](O)[C@H](O)[C@@H]5O[C@H]5O[C@H](CO)[C@@H](O)[C@H](O)[C@@H]5O)[C@@H]4O)[C@@H](O)[C@H](O[C@H]4O[C@H](CO)[C@@H](O)[C@H](O)[C@@H]4O[C@H]4O[C@H](CO)[C@@H](O)[C@H](O)[C@@H]4O[C@H]4O[C@H](CO)[C@@H](O)[C@H](O)[C@@H]4O)[C@@H]3O)CC2)nn1)NC=O)C(C)C)[C@@H](C)O)C(=O)N[C@@H](CC(C)C)C(=O)NCC(=O)N[C@@H](CO)C(=O)NCC(=O)N[C@@H](CO)C(=O)N[C@@H](CC(C)C)C(=O)NCC(=O)N[C@@H](Cc1c[nH]cn1)C(=O)N[C@@H](Cc1c[nH]cn1)C(=O)N[C@@H](Cc1c[nH]cn1)C(=O)N[C@@H](Cc1c[nH]cn1)C(=O)N[C@@H](Cc1c[nH]cn1)C(=O)N[C@@H](Cc1c[nH]cn1)C(=O)N[C@@H](CCCNC(=N)N)C(=O)N[C@@H](CC(=O)O)C(=O)N[C@@H](Cc1ccc(O)cc1)C(=O)N[C@@H](CCCCN)C(=O)N[C@@H](CC(=O)O)C(=O)N[C@@H](CC(=O)O)C(=O)N[C@@H](CC(=O)O)C(=O)N[C@@H](CC(=O)O)C(=O)N[C@@H](CCCCN)C(=O)O (some centres unmarked) [Clone 10F2-Δ11, XXAALKXQVTDXYALALFHRIL] | – | – | 70% | 0.89 nM | tight binding
